The source of these data is patent US9284283B2, “Macrocyclic compounds for modulating IL-17” (ENSEMBLE THERAPEUTICS CORPORATION, priority 2012, dated 2016).

The assay addresses T1, biotinylated human IL-17 (binding to IL17R/Fc) (Homo sapiens, UniProt Q16552).
T1 construct: purchased R&D Systems 317-ILB (IL-17, biotinylated); 177-IR (IL17R/Fc)
T1 sequence (Q16552 20-155 limits assumed): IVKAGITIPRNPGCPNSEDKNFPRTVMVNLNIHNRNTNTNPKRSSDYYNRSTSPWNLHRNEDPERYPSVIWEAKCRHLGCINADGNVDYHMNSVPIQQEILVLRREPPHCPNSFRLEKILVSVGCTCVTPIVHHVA
The assay is described as follows: IL-17 competition ELISA II (captured IL17R/Fc, biotinylated IL-17). In short, it runs like this:
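Anti-human IgG-coated plates captured IL17R/Fc (10 nM), then compound (5-fold dilutions from 1 μM) and biotinylated human IL-17 (20 nM stock) were added for 30 min at room temperature in PBST. Bound IL-17 detected by streptavidin-HRP/TMB at 450 nm. IC50 from 4-parameter logistic fit between no-competitor and blank controls.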
On the technique in general: An ELISA detects its analyte on a solid surface through an enzyme-linked reagent.
As usually defined, the IC50 is the concentration at which inhibition is half-maximal. For `COC(=O)N[C@@H](Cc1ccccc1Cl)C(=O)Nc1ccc(C[C@H]2NC(=O)CC3(CCCC3)CC(=O)N(C)CCOCCN(C)C(=O)[C@@H](C)NC2=O)cc1` [Compound 569], the concentration for half-maximal inhibition (IC50) was < 100 nM.
Turning to `COC(=O)N[C@@H](Cc1ccccc1Cl)C(=O)Nc1ccc(C[C@H]2NC(=O)CC3(CCCC3)CC(=O)N(C)CCCCCN(C)C(=O)[C@@H](C)NC2=O)cc1` [Compound 570], the IC50 is < 100 nM.
For `O=C1CC2(CCCC2)CC(=O)N[C@H](Cc2ccc(NC(=O)[C@H](Cc3ccccc3Cl)NC(=O)Oc3ccc(F)cc3)cc2)C(=O)NCCOCCOCCN1` [Compound 572] the value was < 100 nM.
For `C[C@H]1NC(=O)[C@@H](Cc2ccc(NC(=O)[C@H](Cc3ccccc3Cl)NC(=O)C(=O)c3ccccc3)cc2)NC(=O)CC2(CCCC2)CC(=O)N(C)CCN(C)CCN(C)C1=O` [Compound 573] the value was < 100 nM; for `C[C@H]1NC(=O)[C@@H](Cc2ccc(NC(=O)[C@H](Cc3ccccc3Cl)NC(=O)Oc3ccccc3)cc2)NC(=O)CC2(CCCC2)CC(=O)N(C)CCN(C)CCN(C)C1=O` [Compound 574], < 100 nM.
`C[C@H]1NC(=O)[C@@H](Cc2ccc(NC(=O)[C@H](Cc3ccccc3Cl)NC(=O)Oc3ccc(F)cc3)cc2)NC(=O)CC2(CCCC2)CC(=O)NCCCCCNC1=O` [Compound 575]: the IC50 is < 100 nM.
As to `C[C@H]1NC(=O)[C@@H](Cc2ccc(NC(=O)[C@H](Cc3ccccc3Cl)NC(=O)OCc3ccccc3)cc2)NC(=O)CC2(CCCC2)CC(=O)NCCCCCNC1=O` [Compound 576], the concentration for half-maximal inhibition (IC50) is < 100 nM.
In the case of `CCOC(=O)N[C@@H](Cc1ccccc1Cl)C(=O)Nc1ccc(C[C@H]2NC(=O)CC3(CCCC3)CC(=O)NCCCCCNC(=O)[C@@H](C)NC2=O)cc1` [Compound 577], the IC50 is < 100 nM.
As for `CC(C)OC(=O)N[C@@H](Cc1ccccc1Cl)C(=O)Nc1ccc(C[C@H]2NC(=O)CC3(CCCC3)CC(=O)NCCCCCNC(=O)[C@@H](C)NC2=O)cc1` [Compound 578], the IC50 is < 100 nM.
In the case of `CCOC(=O)N[C@@H](Cc1ccccc1Cl)C(=O)Nc1ccc(C[C@H]2NC(=O)CC3(CCCC3)CC(=O)NCCOCCOCCNC2=O)cc1` [Compound 579], the IC50 was < 100 nM.
For the molecule `CC(C)OC(=O)N[C@@H](Cc1ccccc1Cl)C(=O)Nc1ccc(C[C@H]2NC(=O)CC3(CCCC3)CC(=O)NCCOCCOCCNC2=O)cc1` [Compound 580], the IC50 was < 100 nM.
`CN1CCOCCOCCNC(=O)[C@@H](Cc2ccc(NC(=O)[C@H](Cc3ccccc3Cl)NC(=O)[C@H](O)c3ccccc3)cc2)NC(=O)CC2(CCCC2)CC1=O` [Compound 581]: the IC50 is < 100 nM.
For `C[C@H]1NC(=O)[C@@H](Cc2ccc(NC(=O)[C@H](Cc3ccccc3Cl)NC(=O)[C@H](O)c3ccccc3)cc2)NC(=O)CC2(CCCC2)CC(=O)N(C)CCOCCN(C)C1=O` [Compound 583] the value was < 100 nM; for `CN1CCOCCOCCNC(=O)[C@@H](Cc2ccc(NC(=O)[C@H](Cc3ccccc3Cl)NC(=O)C(=O)c3ccccc3)cc2)NC(=O)CC2(CCCC2)CC1=O` [Compound 585], < 100 nM.
For `C[C@H]1NC(=O)[C@@H](Cc2ccc(NC(=O)[C@H](Cc3ccccc3Cl)NC(=O)Oc3ccccc3)cc2)NC(=O)CC2(CCCC2)CC(=O)NCCCCCNC1=O` [Compound 586] the value was < 100 nM; for `C[C@H]1NC(=O)[C@@H](Cc2ccc(NC(=O)[C@H](Cc3ccccc3Cl)NC(=O)OCc3ccccc3)cc2)NC(=O)CC2(CCCC2)CC(=O)N(C)CCN(C)CCN(C)C1=O` [Compound 587], < 100 nM.
The value for `COC(=O)N[C@@H](Cc1ccccc1Cl)C(=O)Nc1ccc(C[C@H]2NC(=O)CC3(CCCC3)CC(=O)N(C)CCN(C)CCN(C)C(=O)[C@@H](C)NC2=O)cc1` [Compound 588] was < 100 nM; that for `CN1CCOCCOCCN(C)C(=O)[C@@H](Cc2ccc(NC(=O)[C@H](Cc3ccccc3Cl)NC(=O)Cc3ccccc3)cc2)NC(=O)CC2(CCCC2)CC1=O` [Compound 589] was < 100 nM; that for `CN1CCOCCOCCN(C)C(=O)[C@@H](Cc2ccc(NC(=O)[C@H](Cc3ccccc3Cl)NC(=O)Cc3ccc(F)cc3)cc2)NC(=O)CC2(CCCC2)CC1=O` [Compound 590] was < 100 nM.
As to `CN1CCOCCOCCN(C)C(=O)[C@@H](Cc2ccc(NC(=O)[C@H](Cc3ccccc3Cl)NC(=O)C(F)(F)c3ccccc3)cc2)NC(=O)CC2(CCCC2)CC1=O` [Compound 591], the IC50 is < 100 nM.
On to `C[C@H]1NC(=O)[C@@H](Cc2ccc(NC(=O)[C@H](Cc3ccccc3Cl)NC(=O)Cc3ccc(F)cc3)cc2)NC(=O)[C@H]2CC[C@H](CC2)C(=O)NCCCCCNC1=O` [Compound 592], for which the IC50 is 100 to 1000 nM.
Take `C[C@H]1NC(=O)[C@@H](Cc2ccc(NC(=O)[C@H](Cc3ccccc3Cl)NC(=O)C(=O)c3ccccc3)cc2)NC(=O)CC2(CCCC2)CC(=O)N(C)CCOCCN(C)C1=O` [Compound 594]: the IC50 is < 100 nM.
The value for `O=C1CC2(CCCC2)CC(=O)N[C@H](Cc2ccc(NC(=O)[C@@H](NC(=O)C(F)(F)c3ccccc3)C3CCCCC3)cc2)C(=O)NCCOCCOCCN1` [Compound 595] was < 100 nM; that for `CN(C)c1ccc(CC(=O)N[C@H](C(=O)Nc2ccc(C[C@H]3NC(=O)CC4(CCCC4)CC(=O)NCCOCCOCCNC3=O)cc2)C2CCCCC2)cc1` [Compound 596] was < 100 nM; that for `O=C1CC2(CCCC2)CC(=O)N[C@H](Cc2ccc(NC(=O)[C@H](Cc3ccccc3Cl)NC(=O)C(F)(F)c3ccccc3)cc2)C(=O)NCCCCCCCCN1` [Compound 597] was < 100 nM.
The value for `CN(C)c1ccc(CC(=O)N[C@H](C(=O)Nc2ccc(C[C@H]3NC(=O)CC4(CCCC4)CC(=O)NCCCCCCCCNC3=O)cc2)C2CCCCC2)cc1` [Compound 599] was < 100 nM.
The value for `C[C@H]1NC(=O)[C@@H](Cc2ccc(NC(=O)[C@@H](NC(=O)C(F)(F)c3ccccc3)C3CCCCC3)cc2)NC(=O)CC2(CCCC2)CC(=O)N(C)CCOCCN(C)C1=O` [Compound 602] was < 100 nM.
On to `C[C@H]1NC(=O)[C@@H](Cc2ccc(NC(=O)[C@@H](NC(=O)Cc3ccc(N(C)C)cc3)C3CCCCC3)cc2)NC(=O)CC2(CCCC2)CC(=O)N(C)CCOCCN(C)C1=O` [Compound 603], for which the IC50 is < 100 nM.
`C[C@H]1NC(=O)[C@@H](Cc2ccc(NC(=O)[C@@H](NC(=O)C(F)(F)c3ccccc3)C3CCCCC3)cc2)NC(=O)CC2(CCCC2)CC(=O)N(C)CCN(C)CCN(C)C1=O` [Compound 604]: the 50% inhibitory concentration (IC50) is < 100 nM.
For `C[C@H]1NC(=O)[C@@H](Cc2ccc(NC(=O)[C@@H](NC(=O)Cc3ccc(N(C)C)cc3)C3CCCCC3)cc2)NC(=O)CC2(CCCC2)CC(=O)N(C)CCN(C)CCN(C)C1=O` [Compound 605] the value was < 100 nM.
In the case of `C[C@H]1NC(=O)[C@@H](CCCCNC(=O)[C@H](Cc2ccccc2Cl)NC(=O)C(F)(F)c2ccccc2)NC(=O)CC2(CCCC2)CC(=O)NCCCCCNC1=O` [Compound 606], the 50% inhibitory concentration (IC50) was > 10000 nM.
For the molecule `C[C@H]1NC(=O)[C@@H](CCCNC(=O)[C@H](Cc2ccccc2Cl)NC(=O)Cc2ccc(F)cc2)NC(=O)CC2(CCCC2)CC(=O)NCCCCCNC1=O` [Compound 607], the IC50 was > 10000 nM.
For `C[C@H]1NC(=O)[C@@H](CCCNC(=O)[C@H](Cc2ccccc2Cl)NC(=O)C(F)(F)c2ccccc2)NC(=O)CC2(CCCC2)CC(=O)NCCCCCNC1=O` [Compound 608] the value was > 10000 nM; for `C[C@H]1NC(=O)[C@@H](CCNC(=O)[C@H](Cc2ccccc2Cl)NC(=O)Cc2ccc(F)cc2)NC(=O)CC2(CCCC2)CC(=O)NCCCCCNC1=O` [Compound 609], > 10000 nM; for `C[C@H]1NC(=O)[C@@H](CCNC(=O)[C@H](Cc2ccccc2Cl)NC(=O)C(F)(F)c2ccccc2)NC(=O)CC2(CCCC2)CC(=O)NCCCCCNC1=O` [Compound 610], > 10000 nM.
For the molecule `CN1CCOCCOCCNC(=O)[C@@H](Cc2ccc(NC(=O)[C@@H](NC(=O)C(F)(F)c3ccccc3)C3CCCCC3)cc2)NC(=O)CC2(CCCC2)CC1=O` [Compound 611], the half-maximal inhibitory concentration (IC50) is < 100 nM.
Regarding `CN1CCOCCOCCNC(=O)[C@@H](Cc2ccc(NC(=O)[C@H](CC3CCCCC3)NC(=O)C(F)(F)c3ccccc3)cc2)NC(=O)CC2(CCCC2)CC1=O` [Compound 613], the IC50 is < 100 nM.
The value for `CN1CCOCCOCCNC(=O)[C@@H](Cc2ccc(NC(=O)[C@H](CC3CCCCC3)NC(=O)Cc3ccc(N(C)C)cc3)cc2)NC(=O)CC2(CCCC2)CC1=O` [Compound 614] was < 100 nM.
For `CN1CCOCCOCCNC(=O)[C@@H](Cc2ccc(NC(=O)[C@H](CC3CCC3)NC(=O)C(F)(F)c3ccccc3)cc2)NC(=O)CC2(CCCC2)CC1=O` [Compound 615] the value was < 100 nM.
The value for `CN1CCOCCOCCNC(=O)[C@@H](Cc2ccc(NC(=O)[C@H](CC3CCC3)NC(=O)Cc3ccc(N(C)C)cc3)cc2)NC(=O)CC2(CCCC2)CC1=O` [Compound 616] was < 100 nM; that for `C[C@H]1NC(=O)[C@@H](Cc2ccc(NC(=O)[C@H](Cc3ccccc3Cl)NC(=O)Cc3ccc(F)cc3)cc2)NC(=O)CC2(CCCC2)NC(=O)CCCCCNC1=O` [Compound 617] was < 100 nM.
Turning to `C[C@H]1NC(=O)[C@@H](Cc2ccc(NC(=O)[C@H](Cc3ccccc3Cl)NC(=O)Cc3ccc(F)cc3)cc2)NC(=O)CC2(CCCC2)NC(=O)CCCCCCNC1=O` [Compound 618], the IC50 was < 100 nM.
`C[C@H]1NC(=O)[C@@H](Cc2ccc(NC(=O)[C@H](Cc3ccccc3Cl)NC(=O)Cc3ccc(F)cc3)cc2)NC(=O)CC2(CCCC2)NC(=O)CCCCCCCNC1=O` [Compound 619]: the IC50 was < 100 nM.
For `C[C@H]1NC(=O)[C@@H](Cc2ccc(NC(=O)[C@H](Cc3ccccc3Cl)NC(=O)Cc3ccc(F)cc3)cc2)NC(=O)CC(C)(C)NC(=O)CCCCCCNC1=O` [Compound 620] the value was < 100 nM; for `C[C@H]1NC(=O)[C@@H](Cc2ccc(NC(=O)[C@H](Cc3ccccc3Cl)NC(=O)Cc3ccc(F)cc3)cc2)NC(=O)CC2(CCCCC2)NC(=O)CCCCCCNC1=O` [Compound 621], < 100 nM.
